Where “and” joins values, the source holds several entries; their conditions need not be identical. Equal entries are not always repeated.
Key:
Format in all cases: cell-based, human
[1] = system: TAS2R5; test: RT-qPCR gene expression of TAS2R5 in HGT-1 cells; details: VAPFPEVF 17.5 µM, YFYPEL 0.03 µM, YQEPVLGPVRGPFPIIV 0.4 µM, normalized to PPIA and GAPDH and untreated cells, mean, n = 3–5
Procedure: (§1) For mRNA expression analysis, 800,000 cells were seeded in a T25 cell culture flask (25 cm^2) 1 day before the experiment. After incubation with 17.5 μM […], 0.03 μM YFYPEL, or 0.4 μM […] for 15, 30, 60, and 120 min, RNA was isolated using the peqGOLD RNA Kit (VWR Peqlab, USA) following the manufacturer’s protocol. Determination of RNA concentration (A260/A280 between 2.03 and 2.09) was performed on a NanoDrop One^c (Thermo Fisher Scientific Inc., USA). RNA integrity number (RIN 9.9–10.0, version 2.6, assay class Eukaryote Total RNA Nano) was analyzed using a 2100 Bioanalyzer (Agilent Technologies, USA). Removal of gDNA and synthesis of cDNA were performed using the iScript gDNA Clear cDNA Synthesis Kit (BioRad, Feldkirchen, Germany) following the manufacturer’s protocol. Real-time-qPCR (RT-qPCR) was performed with 50 ng cDNA amplified with SsoAdvanced Universal SYBR Green Supermix (Bio-Rad Laboratories, Inc., USA). The sequences of the forward and reverse primers of the 25 TAS2Rs were taken from Liszt et al.([13]) (Supporting Information Table-SI 3). Verified primers for the TAS1Rs (TAS1R1: qHsaCID0013443; TAS1R2: qHsaCID0016106; TAS1R3: qHsaCED0002321) and for MAPK1 (qHsaCEP0050000) were obtained from Bio-Rad Laboratories. PPIA[37] and GAPDH[38] were used as reference genes. The effects of the peptides on gene expression were analyzed in comparison to untreated control cells.

[2] = system: TAS2R14; test: RT-qPCR gene expression of TAS2R14 in HGT-1 cells; details: VAPFPEVF 17.5 µM, YFYPEL 0.03 µM, YQEPVLGPVRGPFPIIV 0.4 µM, normalized to PPIA and GAPDH and untreated cells, mean, n = 3–5
Procedure: as §1

[3] = system: TAS2R45; test: RT-qPCR gene expression of TAS2R45 in HGT-1 cells; details: VAPFPEVF 17.5 µM, YFYPEL 0.03 µM, YQEPVLGPVRGPFPIIV 0.4 µM, normalized to PPIA and GAPDH and untreated cells, mean, n = 3–5
Procedure: as §1

[4] = system: HGT-1 cells; test: Proton secretion assay (intracellular proton index IPX, SNARF-1-AM); details: for ΔIPX (change in intracellular proton index vs untreated cells): 10 min incubation in KRHB, n = 4–8; for ΔIPX (change in intracellular proton index vs untreated cells) / ΔIPX on co-incubation with probenecid: mean ± SEM; for proton secretion with peptide alone compared to untreated control cells: VAPFPEVF 17.5 µM, YFYPEL 0.03 µM, YQEPVLGPVRGPFPIIV 0.4 µM, p < 0.01; for proton secretion with peptide alone compared to untreated control cells / ΔIPX on co-incubation with probenecid: 10 min; for concentration with the lowest IPX value (minimum of curve fit; highest impact on secretory activity): curve fit over 0.01–200 µM proton secretion profile; for ΔIPX on co-incubation with probenecid: peptide (VAPFPEVF 17.5 µM, YFYPEL 0.03 µM, YQEPVLGPVRGPFPIIV 0.4 µM) + 1 mM probenecid, vs untreated cells
Procedure: The measurement of proton secretion from HGT-1 cells represents a well-established model for the identification of bitter compounds. By affecting extraoral bitter taste receptors with bitter compounds, a modulatory effect on proton secretion can be measured. For this purpose, cells were washed with KRHB and incubated with 3 μM of the intracellular pH indicator 1,5 carboxy-seminaphto-rhodafluor acetoxymethyl ester (SNARF-1-AM) under standard conditions. After 30 min, the cells were washed again with KRHB and then incubated with casein (0.01–10 μM equimolar related to the relevant forms αS1- and β-casein), hydrolysate (0.01–10 μM), or the peptides (0.01–200 μM). […] All substances were dissolved and diluted in KRHB. 1 mM histamine was used as a positive control. Measurements were performed using FlexStation 3 (Molecular Devices, USA). The excitation wavelength was 488 nm, and the emission wavelengths were 580 and 640 nm. For calibration (pH range 7.0–8.0), the intracellular and extracellular pH was adjusted with 2 μM nigericin in potassium buffer (20 mM NaCl, 110 mM KCl, 1 mM CaCl2, 1 mM MgSO4, 18 mM D-glucose, and 20 mM HEPES). The intracellular proton index (IPX) was calculated as the log2 value of the 580/640 ratio and compared with cells without treatment. Negative values represent increased secretion of protons and therefore stimulation of mechanisms regulating gastric acid secretion in HGT-1 cells. In contrast, positive values represent an inhibition of secretion compared to the untreated control.

[5] = system: TAS2R19; test: RT-qPCR gene expression of TAS2R19 in HGT-1 cells; details: VAPFPEVF 17.5 µM, YFYPEL 0.03 µM, YQEPVLGPVRGPFPIIV 0.4 µM, normalized to PPIA and GAPDH and untreated cells, mean, n = 3–5
Procedure: as §1

[6] = system: TAS2R39; test: RT-qPCR gene expression of TAS2R39 in HGT-1 cells; details: VAPFPEVF 17.5 µM, YFYPEL 0.03 µM, YQEPVLGPVRGPFPIIV 0.4 µM, normalized to PPIA and GAPDH and untreated cells, mean, n = 3–5
Procedure: as §1

[7] = system: TAS2R20; test: RT-qPCR gene expression of TAS2R20 in HGT-1 cells; details: VAPFPEVF 17.5 µM, YFYPEL 0.03 µM, YQEPVLGPVRGPFPIIV 0.4 µM, normalized to PPIA and GAPDH and untreated cells, mean, n = 3–5
Procedure: as §1

[8] = system: TAS1R3; test: RT-qPCR gene expression of TAS1R3 in HGT-1 cells
Procedure: as §1

[9] = system: TAS2R38; test: RT-qPCR gene expression of TAS2R38 in HGT-1 cells; details: VAPFPEVF 17.5 µM, YFYPEL 0.03 µM, YQEPVLGPVRGPFPIIV 0.4 µM, normalized to PPIA and GAPDH and untreated cells, mean, n = 3–5
Procedure: as §1, with “cells. […]” for “cells.”

| Substance | change in gene expression of TAS2R5 ([1]; incubation 15 min) | change in gene expression of TAS2R5 ([1]; incubation 30 min) | change in gene expression of TAS2R5 ([1]; incubation 60 min) | change in gene expression of TAS2R5 ([1]; incubation 120 min) | change in gene expression of TAS2R14 ([2]; incubation 15 min) | change in gene expression of TAS2R14 ([2]; incubation 30 min) | change in gene expression of TAS2R14 ([2]; incubation 60 min) | change in gene expression of TAS2R14 ([2]; incubation 120 min) | change in gene expression of TAS2R45 ([3]; incubation 15 min) | change in gene expression of TAS2R45 ([3]; incubation 30 min) | change in gene expression of TAS2R45 ([3]; incubation 60 min) | change in gene expression of TAS2R45 ([3]; incubation 120 min) | proton secretion with peptide alone compared to untreated control cells [4] | concentration with the lowest IPX value (minimum of curve fit; highest impact on secretory activity) [4] | ΔIPX on co-incubation with probenecid [4] | change in gene expression of TAS2R19 ([5]; incubation 15 min) | change in gene expression of TAS2R19 ([5]; incubation 30 min) | change in gene expression of TAS2R19 ([5]; incubation 60 min) | change in gene expression of TAS2R19 ([5]; incubation 120 min) | change in gene expression of TAS2R39 ([6]; incubation 15 min) | other results |
| --- | --- | --- | --- | --- | --- | --- | --- | --- | --- | --- | --- | --- | --- | --- | --- | --- | --- | --- | --- | --- | --- |
| VAPFPEVF [bitter casein peptide αS1-CN25–32] | 0.91 fold change | 1.05 fold change | 0.93 fold change | 1.23 fold change | 0.67 fold change | 0.97 fold change | 0.86 fold change | 1.08 fold change | 0.52 fold change | 1.08 fold change | 0.68 fold change | 1.17 fold change | increased proton secretion | 17.5 µM | +0.043 ± 0.031 | 0.66 fold change | 1.22 fold change | 0.69 fold change | 1.25 fold change | 0.39 fold change | ΔIPX (change in intracellular proton index vs untreated cells) ([4]; 10 µM, negative = stimulated, positive = inhibited proton secretion): −0.286 ± 0.037; change in gene expression of TAS2R39 ([6]; incubation 30 min): 1.37 fold change; change in gene expression of TAS2R39 ([6]; incubation 60 min): 0.55 fold change; change in gene expression of TAS2R39 ([6]; incubation 120 min): 1.16 fold change; change in gene expression of TAS2R20 ([7]; incubation 15 min): 0.70 fold change; change in gene expression of TAS2R20 ([7]; incubation 30 min): 1.33 fold change; change in gene expression of TAS2R20 ([7]; incubation 60 min): 0.87 fold change; change in gene expression of TAS2R20 ([7]; incubation 120 min): 1.78 fold change; change in expression of TAS1R3 ([8]; 15/30/60/120 min, VAPFPEVF 17.5 µM, YQEPVLGPVRGPFPIIV 0.4 µM, n = 3): no significant effect; change in gene expression of TAS2R38 ([9]; incubation 15 min): 1.31 fold change; change in gene expression of TAS2R38 ([9]; incubation 30 min): 2.42 fold change and 2.42 ± 0.55 fold change; change in gene expression of TAS2R38 ([9]; incubation 60 min): 1.15 fold change; change in gene expression of TAS2R38 ([9]; incubation 120 min): 2.45 fold change and 2.45 ± 0.26 fold change |
| YFYPEL [bitter casein peptide αS1-CN144–149] | 1.34 fold change | 1.03 fold change | 0.90 fold change | 1.02 fold change | 1.11 fold change | 0.92 fold change | 0.99 fold change | 1.21 fold change | 1.15 fold change | 0.54 fold change | 0.70 fold change | 0.94 fold change | increased proton secretion | 0.03 µM | −0.001 ± 0.019 | 1.60 fold change | 0.82 fold change | 0.79 fold change | 1.05 fold change | 1.21 fold change | ΔIPX (change in intracellular proton index vs untreated cells) ([4]; 0.1 µM, IPX = log2 of 580/640 ratio, negative = stimulated proton secretion): −0.253 ± 0.027; change in gene expression of TAS2R39 ([6]; incubation 30 min): 0.42 fold change; change in gene expression of TAS2R39 ([6]; incubation 60 min): 0.62 fold change; change in gene expression of TAS2R39 ([6]; incubation 120 min): 0.45 fold change; change in gene expression of TAS2R20 ([7]; incubation 15 min): 1.37 fold change; change in gene expression of TAS2R20 ([7]; incubation 30 min): 0.93 fold change; change in gene expression of TAS2R20 ([7]; incubation 60 min): 0.94 fold change; change in gene expression of TAS2R20 ([7]; incubation 120 min): 1.16 fold change; change in expression of TAS1R3 ([8]; 0.03 µM YFYPEL, 15 min, p < 0.0001): significant increase; change in gene expression of TAS2R38 ([9]; incubation 15 min): 2.96 fold change; change in gene expression of TAS2R38 ([9]; incubation 30 min): 3.40 fold change; change in gene expression of TAS2R38 ([9]; incubation 60 min): 2.39 fold change; change in gene expression of TAS2R38 ([9]; incubation 120 min): 2.91 fold change |

From article PMC9501810, “Bitter Peptides YFYPEL, [sequence], and [sequence], Released during Gastric Digestion of Casein, Stimulate Mechanisms of Gastric Acid Secretion via Bitter Taste Receptors TAS2R16 and TAS2R38” (Journal of Agricultural and Food Chemistry, 2022)
